“Also recorded” adds a separate entry of the source.
Key:
[1] = tested on: microsomes isolated from MCF-7/ADR cells; assay: In vitro acidification of MCF-7/ADR microsomes (acridine orange quenching); type: biochemical
Method: Cells were grown in Minimal Essential. Medium supplemented with 10% Fetal Bovine Serum to confluence in 10 level Cell Factories (Nunc, Naperville, Ill.), trypsinized, washed 3× with cold PBS and lysed with a Dounce homogenizer (Pestle A) in 0.25 M sucrose, 20 mM HEPES (pH 7.4), 1 mM DTT, 1 mM EDTA, and 1× protease inhibitor mix (1 μg/ml leupeptin, 1 μ/ml pepstatin A, 1 μg/ml aprotinin, and 16 μM PMSF mixed to 100× before use). The homogenate was centrifuged twice for 10 minutes at 3000×g to remove unbroken cells and nuclei. The supernatant was layered over 20 ml of 0.5 M sucrose (20 mM HEPES (pH 7.4), 1 mM DTT, 1 mM EDTA, 1× protease inhibitor mix) and 1 ml of 2 M sucrose and centrifuged for 1 hour at 100,000 g (Beckman Ti60 Rotor). Microsomes are collected at the 0.5M and 2M interface.
To monitor acidification of the total microsomal fraction, the quenching of AO fluorescence was monitored essentially as described previously [Barasch et al., Nature 352:70-73 (1991)]. Acidic vesicles accumulate AO to high concentrations resulting in the self quenching of the dye and a decrease of the overall fluorescence. Fluorescence was measured on an SLM Aminco-Bowman series 2 luminescence spectrometer with λex =488 nm and λem =530 nm Microsomes (80 μg protein) were suspended in 2.5 ml vesicle buffer (125 mM KCl, 5 mM MgCl2, 20 mM HEPES (pH 7.4), 1 mM DTT, 1 mM EDTA, 2 mM NaN3), with 6 μM AO (5 mM stock in H2 O) in a cuvet. […] After equilibration for 30 minutes at 25° C. 1 mM Tris-ATP was added to begin acidification (100 mM stock, titrated to pH 7.4 with 1 M Tris-base before use). Twenty minutes later, 2.5 μM of nigericin (10 mM stock in EtOH) was added to dissipate any ΔpH formation.
Acridine orange (AO) was used as a probe for lumenal acidification. As vesicles acidify, they accumulate AO to self-quenching concentrations, and deplete the extra-vesicular free AO, resulting in a decrease in total fluorescence. Acidification was initiated by the addition of ATP to a purified microsomal fraction in the absence of cytosol (FIG. 1A, at t=300 sec). […] Nigericin, a K^+ /H^+ exchanger that rapidly dissipates pH gradients, was added at the end of each reaction (t=1500 seconds).

yeast vacuoles = assay: Vm of yeast vacuoles (Oxonol V); type: biochemical, S. cerevisiae; settings: 10 μM, KCl or K-gluconate buffer, 2.5 mM ATP
Method: Oxonol V is a membrane permeable anionic fluorescent probe that accumulates into the inner leaflet of vesicles with positive Vm, resulting in quenching of fluorescence. Vacuoles were suspended in chloride or gluconate vesicle buffer with 1 μM Oxonol V. Fluorescence was measured with a λex =600 nm and λem =630 nm. After fluorescence has equilibrated, vacuoles were added and the fluorescence is allowed to re-equilibrate. Then, 1 mM Tris-ATP was added and the resulting positive Vm was manifested in fluorescence quenching.
The fluorescent dye Oxonal V was used to monitor Vm.
The Vm was monitored in either KCl or K-gluconate buffer (FIG. 3A).

yeast vATPase = assay: Bafilomycin-inhibitable ATPase activity of yeast vATPase; type: biochemical, S. cerevisiae; settings: 5 μM, chloride and gluconate buffer
Method: Vacuoles were diluted in KCl or K-gluconate vesicle buffer. […] Each of the four resulting samples was again split into two and either carrier or […] bafilomycin A1 was added. Next, 2 mM Tris-ATP was added to each sample and the vacuoles were incubated at 30° C. for 15 minutes. To measure the phosphate concentration from ATP hydrolysis, equal volume of Taussky-Shorr Reagent (1% w/v ainmoniummolybdate (w/v), 2.7% v/v sulfuric acid, and 5% w/v ferrous sulfate hexahydrate) was added and the samples were developed for 15 minutes. The A660 was measured (Spectronic Genesys 2) which is linearly related to phosphate concentration. The bafilomycin inlubtable ATPase activity was taken as the difference between the ATPase activity of each condition with or without 100 nM bafilomycin A1.
Replacing chloride with gluconate decreased the bafilomycin-inhibitable ATPase activity (FIG. 3B), further confirming that chloride provided the counter-ion transport to dissipate the Vm.

[2] = Liposome chloride concentration (lucigenin)
[3] = NMR in 10% Triton solution; cited from earlier work
[4] = Method: The lumenal pH (pHL) of liposomes was assayed with pyranine, a fluorescent dye with a pKa~7.3 and a λex =405 nm in its acid form (-3 charge) and a λex =455 nm in its basic form (-4 charge). To prepare pyranine loaded liposomes, lipids (2 mg POPC, 1 mg cholesterol) supplied in chloroform suspension were dried in a round bottom flask under argon for 2 hours. The lipids were then resuspended in acidic or alkaline liposome buffer (300 mM KCl, 20 mM MES, 20 mM MOPS, 20 mM Tricine titrated with KOH to either pH 6.2 or pH 8.1) containing 0.5 mM pyranine. The suspension was incubated at room temperature overnight, then freeze-thawed 6×. Unilamellar liposomies were prepared by extrusion 3× through 2 stacked 100 nm Nucleopore (Corning/Costar Scientific, Acton, Mass.) polycarbonate filters in an Avestin (Vancouver, BC) extruder at 600 PSI.
The pyranine fluorescence was calibrated as a function of pH by diluting the liposomes with pH 6.2 into a weakly buffered solution of identical pH (300 mM KCl, 1 mM MES, 1 mM MOPS, 1 mM Tricine, pH 6.2), 1 μM nigericin to allow rapid equilibration with external pH and 5 mM DPX to quench external pyranine. The ratio of the fluorescence emission at λem =510 nm was monitored with dual excitation wavelengths of λex =405 nm and λex =455 nm. Sequential aliquots of 0.1 mM glycylglycine, pH 8.4 were added to increase pH (See FIG. 5). The fluorescence was measured after each addition and the pH was measured using a pH meter. […] The cahiration curve for the liposomes of lumenal pH 8.1 was generated identically except sequential aliquots of 0.1 mM K-MES pH 5.0 were added for titration and the curve was generated between pH 8.1 and pH 6.4.
To measure the rate of pH dissipation of liposomes with lumenal pH=6.2, the liposomes were diluted in weakly buffered solution of identical pH as described above, but with no nigericin. […] The external pH was shifted to pH 7.3 by addition of 5 mM glycylglycine pH 8.4 and the fluorescence ratio monitored. After 10 minutes, 1 μM nigericin was added to dissipate the remaining pH gradient. The pHL was calculated using the equation pH=x*log(λex =405 nm/[…])+c, were x and c are constants from the least square fit of the titration curve. To measure the rate of pH dissipation of liposomes with pHL =8.1, the identical procedure was followed except 5 mM K-MES pH 5.0 was added to shift the external pH to 6.9.
Liposomes were loaded with pyranine, a hydrophilic, non-permeable fluorescent pH indicator to assay proton permeability. […] Two steps were taken to ensure that only pHL was measured and to permit the discrimination between dissipation of pH gradient and the lysis or dye leakage from liposomes.

## CC/C(=C(\c1ccccc1)c1ccc(OCCN(C)C)cc1)c1ccccc1 [tamoxifen]
[1]; added 10 minutes after ATP, 8 μM tamoxifen (FIG. 1B)
  time to almost complete dissipation of the pH gradient: ≤ 5 minutes
[1]; added 10 minutes after ATP, tamoxifen 8 μM, bafilomycin A1 100 nM
  rate of dissipation of pre-existing pH gradient: rapidly reversed acidification
[1]; pre-treated 30 minutes
  concentration at which acidification was totally blocked: 8 µM
  concentration at which inhibition of acidification was evident: 1 µM
Yeast vacuoles
  effect on Vm generated by the vATPase: significantly decreased the Vm
Yeast vATPase
  effect on bafilomycin-inhibitable ATPase activity: increase of ATPase activity
[2]; 4 μM tamoxifen with 1 μM valinomycin, 50 mM KCl
  rate of chloride influx in the presence of valinomycin: increased the rate of chloride influx
[2]; after addition of 50 mM KCl, tamoxifen 2, 4, 8 μM, valinomycin 1 μM
  rate of chloride influx into liposomes: dose dependent increase in the rate of chloride influx
[3]
  pKa: 6.9
[4]; pHL 6.2 = external pH, tamoxifen 2 μM, 8 μM, NH4Cl 5 mM
  effect of addition on pHL without pre-existing pH gradient: alkalinization of liposomes, followed by more rapid pH equilibration
[4]; pHL 8.1, 300 mM K-glutamate plus 90 mM KCl, external pH shifted to 6.9
  effect on pH equilibration with chloride included: more rapid pH equilibration
[4]; pHL 8.1, 300 mM K-glutamate, external pH shifted to 6.9
  effect on dissipation of pH in the absence of chloride: no effect on the dissipation of pH
[4]; pHL 8.1, external pH shifted to 6.9, tamoxifen 0.5-8 μM, NH4Cl 5 mM, FCCP 1 μM, valinomycin 1 μM
  rate of pH gradient dissipation, alkaline lumen: dissipated more quickly with increasing concentrations; also recorded: faster than saturating concentration of FCCP

— patent US6204067A, “Methods of identifying modulators of the estrogen receptor” (Board of Trustees Operating Michigan State University, priority 1999, dated 2001)
